Measured values published in US20170218449A1, “ANALYTICAL METHODS AND ARRAYS FOR USE IN THE SAME” (SENZAGEN AB, priority 2010, published 2017).
≈ marks a conversion by molar mass, not a printed value. Where two headings read alike, the source gives them in different places.

Key:
CD86 = CD86 cell surface expression by flow cytometry after chemical stimulation; format: cell-based, human; settings: 24 h stimulation, frequency of CD86-positive cells, paired Student's t test
Procedure: Cell surface expression levels of CD86 were monitored after stimulation with chemicals for 24 h. FIG. 2A). Chemical-induced upregulation of CD86, in terms of changes in frequency of positive cells, were determined by flow cytometry, as exemplified by the comparison of 2-aminophenol-stimulated cells (right dotplot) and unstimulated controls (left dotplot). Results are shown from one representative experiment out of three. Gates were set to exclude debris and dead cells, and quadrants were established by comparing with relevant isotype controls. FIG. 2B) Compilation of frequencies of CD86-positive cells after 24 h of stimulation. Statistical analysis was performed using paired Student's t test. *p<0.05, # p<0.01. NA, not analysed.
CD86 is the most extensively studied biomarker for sensitization to date, in cell-systems such as monocyte derived dendritic cells (MoDCs) or dendritic cell-like human cell lines and their progenitors, such as THP-1, U-937 and KG-1. Thus, as a reference, cell surface expression of CD86 was measured with flow cytometry after 24h stimulation with 20 sensitizers and 20 non-sensitizers, as well as with vehicle controls (Table 1). […]. […] Consequently, CD86 cannot classify skin sensitizers, using a cell based system such as MUTZ-3.
The human myeloid leukaemia-derived cell line MUTZ-3 (DSMZ, Braunschweig, Germany) was maintained in a-MEM (Thermo Scientific Hyclone, Logan, Utah) supplemented with 20% (volume/volume) fetal calf serum (Invitrogen, Carlsbad, Calif.) and 40 ng/ml rhGM-CSF (Bayer HealthCare Pharmaceuticals, Seattle, Wash.), as described. Prior to each experiment, the cells were immunophenotyped using flow cytometry as a quality control. Cells were seeded in 6-well plates at 200.000 cells/ml. Stock solutions of each compound was prepared in either DMSO or distilled water, and were subsequently diluted so the in-well concentrations corresponded to the Rv90 value, and in-well concentrations of DMSO were 0.1%. Cells were incubated for 24h at 37° C. and 5% CO2. Thereafter, cells were harvested and analysed with flow cytometry. In parallel, harvested cells were lysed in TRIzol reagent (Invitrogen) and stored at −20° C. until RNA extraction. Stimulations with chemicals were performed in three individual experiments, so that triplicates samples were obtained.
All cell surface staining and washing steps was performed in PBS containing 1% BSA (w/v). Cells were incubated with specific mouse mAbs for 15 min at 4° C. The following mAbs were used for flow cytometry: FITC-conjugated CD1a (DakoCytomation, Glostrup, Denmark), CD34, CD86, and HLA-DR (BD Biosciences), PE-conjugated CD14 (DakoCytomation), CD54 and CD80 (BD Biosciences). Mouse IgG1, conjugated to FITC or PE were used as isotype controls and PI was used to assess cell viability (BD Biosciences). FACSDiva software was used for data acquisition with FACSCanto II instrument (BD Bioscience). 10,000 events were acquired and gates were set based on light scatter properties to exclude debris and nonviable cells. Further data analysis was performed using FCS Express V3 (De Novo Software, Los Angeles, Calif.).

MUTZ-3 cells [1] = assay: transcriptional profiling (Affymetrix Human Gene 1.0 ST arrays) with PCA of chemically stimulated cells; format: cell-based
Procedure: The genomic expression arrays were used to test 20 sensitizers and 20 non-sensitizers, in triplicates, and vehicle controls such as DMSO and distilled water, the latter in twelve replicates.
The human myeloid leukaemia-derived cell line MUTZ-3 (DSMZ, Braunschweig, Germany) was maintained in a-MEM (Thermo Scientific Hyclone, Logan, Utah) supplemented with 20% (volume/volume) fetal calf serum (Invitrogen, Carlsbad, Calif.) and 40 ng/ml rhGM-CSF (Bayer HealthCare Pharmaceuticals, Seattle, Wash.), as described [10]. Prior to each experiment, the cells were immunophenotyped using flow cytometry as a quality control. Cells were seeded in 6-well plates at 200.000 cells/ml. Stock solutions of each compound was prepared in either DMSO or distilled water, and were subsequently diluted so the in-well concentrations corresponded to the Rv90 value, and in-well concentrations of DMSO were 0.1%. Cells were incubated for 24h at 37° C. and 5% CO2. Thereafter, cells were harvested and analysed with flow cytometry. In parallel, harvested cells were lysed in TRIzol reagent (Invitrogen) and stored at −20° C. until RNA extraction. Stimulations with chemicals were performed in three individual experiments, so that triplicates samples were obtained.
RNA isolation and gene chip hybridization was performed as described [22]. […] The preparation of labeled sense DNA was performed according to Affymetrix GeneChip Whole Transcript (WT) Sense Target Labeling Assay (100 ng Total RNA Labeling Protocol) using the recommended kits and controls (Affymetrix, Santa Clara, Calif.). Hybridization, washing and scanning of the Human Gene 1.0 ST Arrays were performed according to the manufacturer's protocol (Affymetrix).
The microarray data were normalised and quality checked with the RMA algorithm, using Affymetrix Expression Console (Affymetrix).

[2] = test system: draining lymph nodes of mice; settings: cited from earlier work
MUTZ-3 cells [3] = assay: cytotoxicity by Propidium Iodide, relative viability (Rv90)
Procedure: A panel of chemicals consisting of 20 sensitizers and 20 non-sensitizers were used for cell stimulations. […] All chemicals were from Sigma-Aldrich, St. Louis, Mo., USA. Compounds were dissolved in either Dimethyl sulfoxide (DMSO) or distilled water. Prior to stimulations, the cytotoxicity of all compounds were monitored, using Propidium Iodide (PI) (BD Biosciences, San Diego, Calif.) using protocol provided by the manufacturer. The relative viability of stimulated cells was calculated as
For toxic compounds, the concentration yielding 90% relative viability (Rv90) was used. For untoxic compounds, a concentration of 500 μM was used when possible. For non-toxic compounds that were insoluble at 500 μM in medium, the highest soluble concentration was used. For compounds dissolved in DMSO, the in-well concentration was 0.1% DMSO.

Max solubility in medium = settings: vehicle DMSO or water
physchem = settings: plasma or biological fluid, kinetic from dmso stock
human [4] = settings: in vivo; cited from earlier work
human [5] = settings: in vivo; cited from earlier work; remark: listed apart in the source
[6] = 24 h stimulation, one or more replicate
[7] = sensitizing potency category based on murine LLNA classification
[8] = concentration yielding 90% relative viability, PI staining

For Nc1ccc(N)c([N+](=O)[O-])c1 [2-nitro-1,4-Phenylendiamine], the “CD86 cell surface expression” value (CD86) was “significantly up-regulated” and the “PCA grouping, 1137 genes (comparing the different stimulations), FIG. 3D” value (MUTZ-3 cells [1]; 24 h stimulation, triplicates) was “replicates that group together, separate from the negative group”.
With CCCCCCCC(=O)O [Octanoic acid] the “PCA grouping, 1010 transcripts (sensitizing vs. non-sensitizing ANOVA), FIG. 3B” value (MUTZ-3 cells [1]; [6]) was “tend to group with the sensitizers”.
For NCCN [Ethylendiamine], the “PCA grouping, 1010 transcripts (sensitizing vs. non-sensitizing ANOVA), FIG. 3B” value (MUTZ-3 cells [1]; [6]) is given as “group together with the control group” and the Potency [2, 7] is given as “Moderate [14]”.
For O=[N+]([O-])c1ccc(Cl)c([N+](=O)[O-])c1 [2,4-Dinitrochlorobenzene], the “Rv90” value (MUTZ-3 cells [3]; [8]) was 4 µM, the “CD86 cell surface expression” value (CD86) was “significantly up-regulated” and the “PCA grouping, 1137 genes (comparing the different stimulations), FIG. 3D” value (MUTZ-3 cells [1]; 24 h stimulation, triplicates) was “replicates that group together, separate from the negative group”. For the same compound, the Potency [2, 7] was “Extreme [15]”.
In the case of CC=Cc1ccc(O)c(OC)c1 [Isoeugenol], the “Rv90” value (MUTZ-3 cells [3]; human) is listed as 300 µM, the “PCA grouping, 1010 transcripts (sensitizing vs. non-sensitizing ANOVA), FIG. 3B” value (MUTZ-3 cells [1]; [6]) is listed as “group together with the control group” and the Potency [2, 7] is listed as “Moderate [28]”.
With O=Cc1ccccc1 [Benzaldehyde] the “Max solubility” value (Max solubility in medium) was 250 µM.
For CCCCCCC(C=O)=Cc1ccccc1 [Hexylcinnamic aldehyde], the “PCA grouping, 1010 transcripts (sensitizing vs. non-sensitizing ANOVA), FIG. 3B” value (MUTZ-3 cells [1]; [6]) is given as “group together with the control group” and the Potency [2, 7] is given as “Moderate [15]”.
In the case of Nc1ccc(N)cc1 [p-Phenylendiamine], the “Rv90” value (MUTZ-3 cells [3]; [8]) is reported as 75 µM, the “CD86 cell surface expression” value (CD86) is reported as “significantly up-regulated” and the “PCA grouping, 1137 genes (comparing the different stimulations), FIG. 3D” value (MUTZ-3 cells [1]; 24 h stimulation, triplicates) is reported as “replicates that group together, separate from the negative group”. For the same compound, the solubility (physchem) was 566 µM (≈ 61.2 µg/mL) and the Potency [2, 7] was “Strong [28]”.
For Oc1ccccc1 [Phenol], the “PCA grouping, 1010 transcripts (sensitizing vs. non-sensitizing ANOVA), FIG. 3B” value (MUTZ-3 cells [1]) was “tend to group with the sensitizers”.
In the case of Oc1cccc(O)c1 [Resorcinol], the “CD86 cell surface expression” value (CD86) is reported as “significantly up-regulated”, the “PCA grouping, 1010 transcripts (sensitizing vs. non-sensitizing ANOVA), FIG. 3B” value (MUTZ-3 cells [1]; [6]) is reported as “group together with the control group” and the “PCA grouping, 1137 genes (comparing the different stimulations), FIG. 3D” value (MUTZ-3 cells [1]; 24 h stimulation, triplicates) is reported as “replicates that group together, separate from the negative group”. For the same compound, the Potency [2, 7] was “Moderate [29]”.
For OC/C=C/c1ccccc1 [Cinnamic alcohol], the “PCA grouping, 1137 genes (comparing the different stimulations), FIG. 3D” value (MUTZ-3 cells [1]; 24 h stimulation, triplicates) is given as “replicates that group together, separate from the negative group” and the Potency [2, 7] is given as “Weak [27]”.
For O=CC=O [Glyoxal], the “Rv90” value (MUTZ-3 cells [3]; [8]) is given as 300 µM, the “PCA grouping, 1010 transcripts (sensitizing vs. non-sensitizing ANOVA), FIG. 3B” value (MUTZ-3 cells [1]; [6]) is given as “group together with the control group” and the Potency ([2]; mouse, in vivo) is given as “Moderate [27]”.
In the case of [K+].[K+].[O]=[Cr](=[O])([O-])[O][Cr](=[O])(=[O])[O-] [Potassium dichromate], the “PCA grouping, 1137 genes (comparing the different stimulations), FIG. 3D” value (MUTZ-3 cells [1]) is listed as “discrete profile” and the Potency [2, 7] is listed as “Extreme [14]”.
In the case of C=O [Formaldehyde], the “Rv90” value (MUTZ-3 cells [3]; human) is given as 80 µM and the Potency ([2]; mouse, in vivo) is given as “Strong [15]”.
For CCO/C=C1\N=C(c2ccccc2)OC1=O [Oxazolone], the Potency ([2]; mouse, in vivo) is given as “Extreme [15]”.
For O=CC=Cc1ccccc1 [Cinnamaldehyde], the “Rv90” value (MUTZ-3 cells [3]; human) is given as 120 µM, the “CD86 cell surface expression” value (CD86) is given as “significantly up-regulated” and the HMT (human [4]) is given as “+”. The HPTA (human [5]) was “+”.
In the case of CCCCCCCC/C=C\CCCCCCCC(=O)OCCOCC(OCCO)C1OCC(OCCO)C1OCCO (centres unmarked) [Tween 80], the “PCA grouping, 1010 transcripts (sensitizing vs. non-sensitizing ANOVA), FIG. 3B” value (MUTZ-3 cells [1]; [6]) is reported as “tend to group with the sensitizers”.
In the case of C=CC(=O)OCCO [2-Hydroxyethyl acrylate], the “Rv90” value (MUTZ-3 cells [3]; [8]) is reported as 100 µM, the “CD86 cell surface expression” value (CD86) is reported as “significantly up-regulated” and the “PCA grouping, 1137 genes (comparing the different stimulations), FIG. 3D” value (MUTZ-3 cells [1]; 24 h stimulation, triplicates) is reported as “replicates that group together, separate from the negative group”.
For C=CCc1ccc(O)c(OC)c1 [Eugenol], the “Rv90” value (MUTZ-3 cells [3]; human) is given as 300 µM, the “PCA grouping, 1010 transcripts (sensitizing vs. non-sensitizing ANOVA), FIG. 3B” value (MUTZ-3 cells [1]; [6]) is given as “group together with the control group” and the Potency [2, 7] is given as “Weak [28]”.
In the case of Nc1ccccc1O [2-Aminophenol], the “Rv90” value (MUTZ-3 cells [3]; [8]) is reported as 100 µM, the “CD86 cell surface expression” value (CD86) is reported as “significantly up-regulated” and the “PCA grouping, 1137 genes (comparing the different stimulations), FIG. 3D” value (MUTZ-3 cells [1]) is reported as “replicates that group together, separate from the negative group”. For the same compound, the Potency [2, 7] was “Strong [27]”.
In the case of Sc1nc2ccccc2s1 [2-Mercaptobenzothiazole], the “CD86 cell surface expression” value (CD86) is given as “significantly up-regulated”, the “PCA grouping, 1137 genes (comparing the different stimulations), FIG. 3D” value (MUTZ-3 cells [1]; 24 h stimulation, triplicates) is given as “replicates that group together, separate from the negative group” and the Potency [2, 7] is given as “Moderate [27]”.
For CC1(C)S[C@@H]2[C@H](NC(=O)Cc3ccccc3)C(=O)N2[C@H]1C(=O)O [Penicillin G], the “PCA grouping, 1010 transcripts (sensitizing vs. non-sensitizing ANOVA), FIG. 3B” value (MUTZ-3 cells [1]; [6]) is listed as “group together with the control group” and the Potency [2, 7] is listed as “Weak [28]”.
For CCCCCCCCCCCCOS(=O)(=O)[O-].[Na+] [Sodium dodecyl sulphate], the “Rv90” value (MUTZ-3 cells [3]; [8]) was 200 µM.
